Test results taken from ChEMBL document CHEMBL1221220, “Transport and signaling via the amino acid binding site of the yeast Gap1 amino acid transceptor” (Nat Chem Biol, 2009).
Substitutions are numbered along the chain they refer to. Activity calls are given as the source filed them. The rule behind the calls is not given here.

Assays:
Saccharomyces cerevisiae = experiment: Induction of yeast Gap1 L404 mutant-mediated trehalose activation at 10 mM
[1] = test system: General amino-acid permease GAP1 (Saccharomyces cerevisiae), P19145 [S392C]; experiment: Inhibition of yeast Gap1 S392C mutant-mediated amino acid uptake at 10 mM
[2] = test system: T1, General amino-acid permease GAP1 (Saccharomyces cerevisiae), P19145 [G390C]; experiment: Induction of yeast Gap1 G390C mutant-mediated trehalose activation at 2 mM in presence of 10 mM MTSEA treated before compound addition
T1 sequence (whole entry): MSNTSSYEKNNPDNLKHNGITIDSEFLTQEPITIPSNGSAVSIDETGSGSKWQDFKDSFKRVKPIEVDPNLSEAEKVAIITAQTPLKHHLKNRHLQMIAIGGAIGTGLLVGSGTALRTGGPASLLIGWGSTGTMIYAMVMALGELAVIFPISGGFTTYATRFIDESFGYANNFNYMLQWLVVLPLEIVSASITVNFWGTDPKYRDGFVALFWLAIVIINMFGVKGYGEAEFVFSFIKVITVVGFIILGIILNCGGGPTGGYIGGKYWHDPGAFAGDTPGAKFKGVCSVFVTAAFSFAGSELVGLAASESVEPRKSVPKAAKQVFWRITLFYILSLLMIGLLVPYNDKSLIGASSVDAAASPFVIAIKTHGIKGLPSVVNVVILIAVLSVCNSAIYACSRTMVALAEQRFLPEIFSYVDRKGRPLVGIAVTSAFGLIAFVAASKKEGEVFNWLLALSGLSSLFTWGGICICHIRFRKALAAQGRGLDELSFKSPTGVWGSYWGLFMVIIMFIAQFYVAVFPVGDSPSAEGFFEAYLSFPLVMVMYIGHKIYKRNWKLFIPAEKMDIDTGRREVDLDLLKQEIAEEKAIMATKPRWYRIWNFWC

[3] = test system: T2, General amino-acid permease GAP1 (Saccharomyces cerevisiae), P19145 [V381C]; experiment: Induction of yeast Gap1 V381C mutant-mediated amino acid uptake at 2 mM in presence of 10 mM MTSEA treated before compound addition
T2 sequence (whole entry): T1 sequence (whole entry) with V381C, C390G

[4] = test system: T3, General amino-acid permease GAP1 (Saccharomyces cerevisiae), P19145 [A385C]; experiment: Induction of yeast Gap1 A385C mutant-mediated amino acid uptake at 2 mM in presence of 10 mM MTSEA treated before compound addition
T3 sequence (whole entry): T1 sequence (whole entry) with A385C, C390G

[5] = test system: T4, General amino-acid permease GAP1 (Saccharomyces cerevisiae), P19145 [R399C]; experiment: Induction of yeast Gap1 R399C mutant-mediated amino acid uptake at 2 mM in presence of 10 mM MTSEA treated before compound addition
T4 sequence (whole entry): T1 sequence (whole entry) with C390G, R399C

Chain of General amino-acid permease GAP1 (Saccharomyces cerevisiae), P19145 [S392C] (P19145 whole entry S392C): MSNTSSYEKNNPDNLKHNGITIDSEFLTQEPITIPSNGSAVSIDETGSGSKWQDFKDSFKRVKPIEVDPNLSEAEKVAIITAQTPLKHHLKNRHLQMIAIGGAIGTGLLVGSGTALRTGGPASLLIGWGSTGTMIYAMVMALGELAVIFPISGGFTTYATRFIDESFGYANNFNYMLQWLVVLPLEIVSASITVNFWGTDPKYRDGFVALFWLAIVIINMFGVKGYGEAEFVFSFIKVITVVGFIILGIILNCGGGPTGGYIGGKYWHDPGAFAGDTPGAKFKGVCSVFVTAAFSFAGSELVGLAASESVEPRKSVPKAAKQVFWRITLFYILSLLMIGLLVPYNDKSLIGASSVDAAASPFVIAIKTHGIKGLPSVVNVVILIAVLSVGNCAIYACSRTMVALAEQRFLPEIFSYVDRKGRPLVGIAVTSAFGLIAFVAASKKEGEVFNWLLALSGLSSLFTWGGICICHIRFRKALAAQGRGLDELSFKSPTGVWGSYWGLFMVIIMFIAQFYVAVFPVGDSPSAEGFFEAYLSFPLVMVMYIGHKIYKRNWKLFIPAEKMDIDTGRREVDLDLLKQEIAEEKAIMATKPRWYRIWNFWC

Activity (Saccharomyces cerevisiae): inactive
inhibition [1]: Active
inhibition [2]: Active
Activity [3]: Active
Activity [4]: Active
Activity [5]: Active
Structure (SMILES): NC(=O)NCCC[C@H](N)C(=O)O
